pEC50: −log10 of the molar value. Counter-ions that a name gives are not always drawn. Like-named read-outs stand apart in the source and are kept apart here.
System: normal esophageal epithelium cell line EACN42
Assay: FDA library drug sensitivity testing (CellTiter-Glo, 72 h), normal control cells
Type: cell-based, human
Design: key to DSS: modified drug sensitivity score (DSSmod) from dose-response curve fit
Details: for pEC50: cell viability (ATP), max test concentration 10μM
Description: The normal esophageal epithelium cell line EACN42 was established in the Capobianco laboratory. The cell lines was derived from human normal epithelium and immortalized using HPV E6-E7.
Drug sensitivity testing (DST) was performed as described previously. […] Individual drugs were dissolved in 100% DMSO and tested in duplicates starting at a maximal test concentration of 10μM then over a 20,000-fold concentration range to generate dose response curves. Wells with assay buffer containing DMSO served as negative controls. 1000 exponentially growing cells were seeded per well in 384-well micro-titer plates and incubated in the presence of compounds in a humidified environment at 37°C and 5% CO2. After 72 hours of treatment, cell viability was assessed by measuring ATP levels via bioluminescence (CellTiter-Glo, Promega) according to manufactures recommendations. Interpretation of curve parameters was performed according to the modified drug sensitivity scoring (DSSmod) function developed by Swords et al. […] Given in this way, the sDSSmod incorporated information on each drug’s potency, efficacy, effect range and therapeutic index, making it possible to prioritize compounds over multiple parameters using a single numerical metric. […] All calculations and scoring routines are implemented in MatLab and additional curve fitting and statistical analyses are performed in GraphPad prism.

[1] = drug sensitivity score, EACN42 normal esophageal cells, 72 h
[2] = Homo sapiens, 72 h, EACN42 normal esophageal cells
[3] = EACN42 normal esophageal cells, 72 h

Row | SMILES | DSS [1] | further results
1 | CN(N=O)C(=O)N[C@H]1C(O)O[C@H](CO)[C@@H](O)[C@@H]1O (mixture of isomers) [Streptozotocin] | 0 | 
2 | COc1cc2c(cc1O)CC[C@@H]1[C@@H]2CC[C@]2(C)[C@@H](O)CC[C@@H]12 [2-Methoxyestradiol] | 0.26 | pEC50 [2]: < 5.00
3 | CC(=O)O[C@@]12CO[C@@H]1C[C@H](O)[C@@]1(C)C(=O)[C@H](O)C3=C(C)[C@@H](O)C[C@@](O)([C@@H](OC(=O)c4ccccc4)[C@H]21)C3(C)C [10-DAB] | 0.01 | pEC50 [3]: 5.26
4 | CC(=O)O[C@H]1CC[C@@]2(C)C(=CC[C@@H]3[C@@H]2CC[C@]2(C)C(c4cccnc4)=CC[C@@H]32)C1 [Abiraterone Acetate] | 0 | 
5 | C[C@]12CC[C@H](O)CC1=CC[C@@H]1[C@@H]2CC[C@]2(C)C(c3cccnc3)=CC[C@@H]12 [Abiraterone] | 0 | 
6 | Cl.Nc1ncnc2nc[nH]c12 [Adenine hydrochloride] | 0 | pEC50 [3]: 8.00
7 | Nc1ncnc2nc[nH]c12.Nc1ncnc2nc[nH]c12.O=S(=O)(O)O [Adenine sulfate] | 0 | pEC50 [3]: 6.60
8 | Nc1ncnc2[nH]cnc12 [Adenine] | 0 | 
9 | CN(C)C/C=C/C(=O)Nc1cc2c(Nc3ccc(F)c(Cl)c3)ncnc2cc1O[C@H]1CCOC1 [Afatinib] | 0.12 | pEC50 [2]: 5.34
10 | CN(C)c1nc(N(C)C)nc(N(C)C)n1 [Altretamine] | 0 | 
11 | CCC1(c2ccc(N)cc2)CCC(=O)NC1=O (stereo not shown) [Aminoglutethimide] | 0 | 
12 | O=C1CN2Cc3c(ccc(Cl)c3Cl)N=C2N1 [Anagrelide HCl] | 0 | pEC50 [2]: 7.40
13 | CC(C)(C#N)c1cc(Cn2cncn2)cc(C(C)(C)C#N)c1 [Anastrozole] | 0 | pEC50 [2]: 5.80
14 | N#CC1(c2ccc(NC(=O)c3cccnc3NCc3ccncc3)cc2)CCCC1 [Apatinib] | 0 | pEC50 [2]: 7.30
15 | C[C@@H](O[C@H]1OCCN(Cc2n[nH]c(=O)[nH]2)[C@H]1c1ccc(F)cc1)c1cc(C(F)(F)F)cc(C(F)(F)F)c1 [Aprepitant] | 0 | 
16 | CO[C@H]1O[C@@H]2O[C@@]3(C)CC[C@H]4[C@H](C)CC[C@@H]([C@H]1C)[C@@]24OO3 [Artemether] | 0 | 
17 | CC(=O)Oc1ccccc1C(=O)O [Aspirin] | 0 | treatment response in words [3]: low or no activity
18 | COC(=O)N[C@H](C(=O)N[C@@H](Cc1ccccc1)[C@@H](O)CN(Cc1ccc(-c2ccccn2)cc1)NC(=O)[C@@H](NC(=O)OC)C(C)(C)C)C(C)(C)C.O=S(=O)(O)O [Atazanavir sulfate] | 0 | 
19 | CNC(=O)c1ccccc1Sc1ccc2c(/C=C/c3ccccn3)n[nH]c2c1 [Axitinib] | 0 | 
20 | CC[C@H]1OC(=O)[C@H](C)[C@@H](O[C@H]2C[C@@](C)(OC)[C@@H](O)[C@H](C)O2)[C@H](C)[C@@H](O[C@@H]2O[C@H](C)C[C@H](N(C)C)[C@H]2O)[C@](C)(O)C[C@@H](C)CN(C)[C@H](C)[C@@H](O)[C@]1(C)O [Azithromycin] | 0 | 
21 | Cl.Cn1c(CCCC(=O)O)nc2cc(N(CCCl)CCCl)ccc21 [Bendamustine HCL] | 0 | 
22 | O=C(O)CCCN1CCC(O[C@@H](c2ccc(Cl)cc2)c2ccccn2)CC1.O=S(=O)(O)c1ccccc1 [Bepotastine Besilate] | 0 | 
23 | COc1c2ccoc2cc2oc(=O)ccc12 [Bergapten] | 0 | pEC50 [2]: 7.30
24 | C[C@H]1C[C@H]2[C@@H]3CCC4=CC(=O)C=C[C@]4(C)[C@H]3C(=O)C[C@]2(C)[C@@]1(O)C(=O)CO [Betapar] | 0 | 
25 | C=C(c1ccc(C(=O)O)cc1)c1cc2c(cc1C)C(C)(C)CCC2(C)C [Bexarotene] | 0.12 | pEC50 [2]: 5.37
26 | CC(O)(CS(=O)(=O)c1ccc(F)cc1)C(=O)Nc1ccc(C#N)c(C(F)(F)F)c1 (stereo not shown) [Bicalutamide] | 0 | 

Row | SMILES | DSS [1] | further results
27 | CCN1CCN(c2cc(-c3ccc(F)cc3)c3c(n2)CCCCCC3)CC1 [Blonanserin] | 0 | pEC50 [2]: 7.40
28 | COc1cc(Nc2c(C#N)cnc3cc(OCCCN4CCN(C)CC4)c(OC)cc23)c(Cl)cc1Cl [Bosutinib] | 0 | 
29 | CS(=O)(=O)OCCCCOS(C)(=O)=O [Busulfan] | 0 | 
30 | CCCCCOC(=O)Nc1nc(=O)n([C@@H]2O[C@H](C)[C@@H](O)[C@H]2O)cc1F [Capecitabine] | 0 | pEC50 [2]: 6.00
31 | CN1C2=CC(=O)/C(=N\NC(N)=O)C=C2CC1S(=O)(=O)[O-].[Na+] (stereo not shown) [Carbazochrome sodium sulfonate] | 0 | 
32 | N.N.O=C([O-])C1(C(=O)[O-])CCC1.[Pt+2] [Carboplatin] | 3.68 | treatment response in words [3]: minimal treatment effects; pEC50 [3]: 5.63
33 | Cc1ccc(-c2cc(C(F)(F)F)nn2-c2ccc(S(N)(=O)=O)cc2)cc1 [Celecoxib] | 0 | 
34 | CCN(CC)CCOc1ccc(C(=C(Cl)c2ccccc2)c2ccccc2)cc1 [Clomifene citrate] | 0 | 
35 | Nc1cc(C(Cl)=C(Cl)Cl)c(S(N)(=O)=O)cc1S(N)(=O)=O [Clorsulon] | 0 | 
36 | CC(=O)OCC(=O)[C@@]1(O)CC[C@H]2[C@@H]3CCC4=CC(=O)CC[C@]4(C)[C@H]3C(=O)C[C@@]21C [Cortisone acetate] | 0 | 
37 | O=P1(N(CCCl)CCCl)NCCCO1 (stereo not shown) [Cyclophosphamide monohydrate] |  | DSS: 0
38 | CN(C)/N=N/c1[nH]cnc1C(N)=O [Dacarbazine] | 0 | 
39 | Nc1ncn([C@H]2C[C@H](O)[C@@H](CO)O2)c(=O)n1 [Decitabine] | 0 | pEC50 (Homo sapiens, EACN42 normal esophageal cells, 72 h): 6.77
40 | CC(=O)OCC(=O)[C@@]1(O)[C@H](C)C[C@H]2[C@@H]3CCC4=CC(=O)C=C[C@]4(C)[C@@]3(F)[C@@H](O)C[C@@]21C [Dexamethasone acetate] | 0 | 
41 | C[C@@H]1C[C@H]2[C@@H]3CCC4=CC(=O)C=C[C@]4(C)[C@@]3(F)[C@@H](O)C[C@]2(C)[C@@]1(O)C(=O)CO [Dexamethasone] | 0 | 
42 | CC/C(=C(/CC)c1ccc(O)cc1)c1ccc(O)cc1 [Diethylstilbestrol] | 0 | 
43 | CCN[C@H]1C[C@H](C)S(=O)(=O)c2sc(S(N)(=O)=O)cc21 [Dorzolamide HCL] | 0.01 | 
44 | C=C1/C(=C\C=C2/CCC[C@]3(C)[C@@H]([C@H](C)/C=C/[C@H](C)C(C)C)CC[C@@H]23)C[C@@H](O)C[C@@H]1O [Doxercalciferol] | 0 | pEC50 [2]: 8.15
45 | CC1=NN(c2ccc(C)c(C)c2)C(=O)/C1=N\Nc1cccc(-c2cccc(C(=O)O)c2)c1O [Eltrombopag] | 0.32 | pEC50 [2]: 5.33
46 | CNC(=O)c1ccc(N2C(=S)N(c3ccc(C#N)c(C(F)(F)F)c3)C(=O)C2(C)C)cc1F [Enzalutamide] | 0 | 
47 | CNC[C@H](O)c1ccc(O)c(O)c1 [Epinephrine bitartrate] | 0 | 
48 | C#Cc1cccc(Nc2ncnc3cc(OCCOC)c(OCCOC)cc23)c1 [Erlotinib HCl] | 0 | 
49 | COc1ccc2[n-]c([S@@+]([O-])Cc3ncc(C)c(OC)c3C)nc2c1.[Na+] [Esomeprazole sodium] | 0 | 
50 | C[C@]12CC[C@@H]3c4ccc(O)cc4CC[C@H]3[C@@H]1CC[C@@H]2O [Estradiol] | 0 | 
51 | C[C@]12CC[C@@H]3c4ccc(O)cc4CC[C@H]3[C@@H]1CCC2=O [Estrone] | 0 | 
52 | O=C(c1ccc(OCCN2CCCCC2)cc1)c1c(-c2ccc(O)cc2)sc2cc(O)ccc12 [Evista] | 0 | 

Reference: PMC6136712, “Ex vivo drug sensitivity testing as a means for drug repurposing in esophageal adenocarcinoma” (PLoS ONE, 2018)
